# Laboratory results taken from PubChem BioAssay AID1963863 (Molecular Pharmacology Branch, DTP, NCI, 2024).
# Tested on: 931267-113-T-J1-PDC KRAS spheroid with HUVEC/MSC, viability
# Test: Anticancer human tumor 931267-113-T-J1-PDC patient-derived colon adenocarcinoma cell line growth inhibition [KRAS2]
# Settings: for viability, T/C: stronger effect = lower value
# From the text: Multicellular complex tumor spheroid response to RAS pathway inhibitors in combination with a targeted agents in patient-derived cell lines with oncogenic KRAS variants from multiple cancer types
# A high-throughput screen of multi-cell type tumor spheroids was designed to identify active combinations of targeted small molecules and KRAS pathway inhibitors. Complex spheroids include a stromal component modeled by human endothelial cells (HUVEC) and fibroblasts modeled by human mesenchymal stem cells (MSCs). The concentration ranges selected for each drug and investigational agent were based upon clinically achievable concentrations if the clinical Cmax of the agent was known.
# Compounds. The drugs and investigational agents: BI-3406 (NSC825286), BAY-293 (NSC824723), batoprotafib (TNO155; NSC825523), sotorasib (AMG 510; NSC818433), MRTX1257 (NSC819558), elimusertib (BAY 1895344; NSC800525), molibresib (GSK525762; NSC774829), temuterkib (LY3214996; NSC803410), venetoclax (NSC766270), alisertib (NSC759677), olaparib (NSC753686), talazoparib (NSC767125), erdafitinib (NSC781556), ipatasertib (NSC767898), cabozantinib (NSC761068), nintedanib (NSC756659), abemaciclib (NSC768073), docetaxel (NSC628503), trametinib (NSC758246), and sapanisertib (NSC764658) were obtained from the National Cancer Institute (NCI) Developmental Therapeutics Program Chemical Repository. The FDA-approved anticancer drug set is available from the Developmental Therapeutics Program. […] The stock solutions were prepared in dimethyl sulfoxide (DMSO, Sigma-Aldrich, St. Louis, MO, cat. D2650) at 800-fold the tested concentration and stored at -70 degrees C prior to their use. All drugs and investigational agents were tested over a range starting from a high concentration at or near the clinical Cmax and decreasing in half-log increments. If the clinical Cmax for an agent had not been determined, the highest concentration tested was 10 microM.
# Cell Culture. All cells were maintained in an incubator at 37 degrees C and 5% CO2 with 95% humidity. The PDC lines were cultured according to standard operating procedures established by the NCI PDMR (https://pdmr.cancer.gov/sops/default.htm). Briefly, all PDCs were thawed and cultured in Matrigel-coated flasks prepared with a working solution of 1X Ham's F-12 nutrient mix, without supplementation (Invitrogen, Waltham, MA, cat. 11765054), 100 U/mL penicillin-streptomycin (Invitrogen, cat. 15140122), and 2.5% Matrigel (Corning Inc., Corning, NY, cat. 354248) for the first three passages. All PDCs were cultured in complete DMEM/F-12 media containing advanced DMEM/F-12 (Invitrogen, cat. 12634028), 4.9% defined fetal bovine serum, heat inactivated (HyClone Laboratories Inc., Logan, UT, cat. SH30070.03HI), 389 ng/mL hydrocortisone (Sigma-Aldrich, cat. H4001), 9.7 ng/mL human EGF recombinant protein (Invitrogen, cat. PHG0313), 23.4 microg/mL adenine (Sigma-Aldrich, cat. A2786), 97.3 U/mL penicillin-streptomycin (Invitrogen, cat. 15140122), 1.9 mM L-glutamine (Invitrogen, cat. 25030081), and 9.7 microM Y-27632 dihydrochloride (Tocris Bioscience, Bristol, United Kingdom, cat. 1254). The PDCs were cultured in complete DMEM/F12 media without 9.7 microM Y-27632 dihydrochloride for at least two passages prior to the screen. The established cell line HOP-62 was cultured in RPMI 1640 medium, HEPES (Invitrogen, cat. 22400105) with 10% defined fetal bovine serum (HyClone Laboratories Inc., cat. SH30070.03) and 2 mM L-glutamine (Invitrogen, cat. 25030081). The pooled donor HUVEC were cultured in endothelial cell growth medium 2 (PromoCell, Heidelberg, Germany, cat. C-22011) and the hMSC were cultured in mesenchymal stem cell growth medium 2 (PromoCell, cat. C-28009). For all experiments, HUVEC and hMSC were used at passages </=5, while the malignant cell lines were used at passages </=15. […]
# [1] = curve of first compound, second compound 0.1 µM
# [2] = curve of first compound, second compound 0.316 µM
# [3] = curve of first compound, second compound 1 µM
# [4] = curve of first compound, second compound 3.16 µM
# [5] = curve of first compound, second compound 10 µM
# [6] = second compound 0.1 µM, first compound 0.0316 µM
# [7] = second compound 0.1 µM, first compound 0.1 µM
# [8] = second compound 0.1 µM, first compound 0.316 µM
# [9] = second compound 0.1 µM, first compound 1 µM
# [10] = second compound 0.316 µM, first compound 0.0316 µM
# [11] = second compound 0.316 µM, first compound 0.1 µM
# [12] = second compound 0.316 µM, first compound 0.316 µM
# [13] = second compound 0.316 µM, first compound 1 µM
# [14] = second compound 1 µM, first compound 0.0316 µM
# [15] = second compound 1 µM, first compound 0.1 µM
# [16] = second compound 1 µM, first compound 0.316 µM
# [17] = second compound 1 µM, first compound 1 µM
# [18] = second compound 3.16 µM, first compound 0.0316 µM
# [19] = second compound 3.16 µM, first compound 0.1 µM
# [20] = second compound 3.16 µM, first compound 0.316 µM
# [21] = second compound 3.16 µM, first compound 1 µM
# [22] = second compound 10 µM, first compound 0.0316 µM
# [23] = second compound 10 µM, first compound 0.1 µM
# [24] = second compound 10 µM, first compound 0.316 µM
# [25] = second compound 10 µM, first compound 1 µM
# [26] = second compound 0.1 µM, first compound 3.16 µM
# [27] = second compound 0.1 µM, first compound 10 µM
# [28] = second compound 0.316 µM, first compound 3.16 µM
# [29] = second compound 0.316 µM, first compound 10 µM
# [30] = second compound 1 µM, first compound 3.16 µM
# [31] = second compound 1 µM, first compound 10 µM
# [32] = second compound 3.16 µM, first compound 3.16 µM
# [33] = second compound 3.16 µM, first compound 10 µM
# [34] = second compound 10 µM, first compound 3.16 µM
# [35] = second compound 10 µM, first compound 10 µM
# 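Further: compound exposure lasted 7 days before the readout.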
# 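Wherever viability, T/C is given: 100% = DMSO vehicle control viability.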
Structure (SMILES),IC50 [1],IC50 [2],IC50 [3],IC50 [4],"viability, T/C [6]","viability, T/C [7]","viability, T/C [8]","viability, T/C [9]","viability, T/C [10]","viability, T/C [11]","viability, T/C [12]","viability, T/C [13]","viability, T/C [14]","viability, T/C [15]","viability, T/C [16]","viability, T/C [17]","viability, T/C [18]","viability, T/C [19]","viability, T/C [20]","viability, T/C [21]",further results
CCN1CCN(Cc2ccc(Nc3ncc(F)c(-c4cc(F)c5nc(C)n(C(C)C)c5c4)n3)nc2)CC1 + CNCc1ccccc1-c1csc(C(C)Nc2nc(C)nc3cc(OC)c(OC)cc23)c1,149 nM,70.1 nM,6.73 nM,< 3.16 nM,56.5%,56.6%,43.2%,28.6%,46.4%,49%,38.5%,3.67%,28.7%,32.2%,1.49%,0.15%,0.08%,0.09%,0.05%,0.14%,"IC50 [5]: < 3.16 nM; viability, T/C (second compound 0.1 µM, first compound 0.00316 µM): 76.8%; viability, T/C (second compound 0.1 µM, first compound 0.01 µM): 82.9%; viability, T/C (second compound 0.316 µM, first compound 0.00316 µM): 75.2%; viability, T/C (second compound 0.316 µM, first compound 0.01 µM): 60.7%; viability, T/C (second compound 1 µM, first compound 0.00316 µM): 60.1%; viability, T/C (second compound 1 µM, first compound 0.01 µM): 43.3%; viability, T/C (second compound 3.16 µM, first compound 0.00316 µM): 0.13%; viability, T/C (second compound 3.16 µM, first compound 0.01 µM): 0.12%; viability, T/C (second compound 10 µM, first compound 0.00316 µM): 4.51%; viability, T/C (second compound 10 µM, first compound 0.01 µM): 0.16%; viability, T/C [22]: 0.18%; viability, T/C [23]: 0.15%; viability, T/C [24]: 1.23%; viability, T/C [25]: 0.18%"
CC1OCC2(CCN(c3cnc(Sc4ccnc(N)c4Cl)c(N)n3)CC2)C1N (stereo unspecified) + CNCc1ccccc1-c1csc(C(C)Nc2nc(C)nc3cc(OC)c(OC)cc23)c1,> 10000 nM,> 10000 nM,31.6 nM,< 31.6 nM,96.8%,70.7%,66.5%,68.3%,88.6%,89.3%,72%,63.2%,51.3%,44.8%,54.2%,33.1%,0.09%,0.09%,0.08%,0.08%,"IC50 [5]: < 31.6 nM; viability, T/C [26]: 61.1%; viability, T/C [27]: 59.8%; viability, T/C [28]: 78.8%; viability, T/C [29]: 81.8%; viability, T/C [30]: 33.2%; viability, T/C [31]: 27.5%; viability, T/C [32]: 0.08%; viability, T/C [33]: 0.17%; viability, T/C [22]: 0.12%; viability, T/C [23]: 0.19%; viability, T/C [24]: 0.13%; viability, T/C [25]: 0.13%; viability, T/C [34]: 0.12%; viability, T/C [35]: 0.17%"
O=C(c1cc(Cc2n[nH]c(=O)c3ccccc23)ccc1F)N1CCN(C(=O)C2CC2)CC1 + CNCc1ccccc1-c1csc(C(C)Nc2nc(C)nc3cc(OC)c(OC)cc23)c1,> 10000 nM,> 10000 nM,> 10000 nM,< 31.6 nM,98.8%,100%,86.8%,85.9%,106%,88.5%,98%,88.5%,114%,113%,108%,96.6%,0.55%,0.34%,0.4%,0.47%,"IC50 [5]: < 31.6 nM; viability, T/C [26]: 61.9%; viability, T/C [27]: 72.2%; viability, T/C [28]: 82.7%; viability, T/C [29]: 80%; viability, T/C [30]: 112%; viability, T/C [31]: 75.6%; viability, T/C [32]: 0.43%; viability, T/C [33]: 0.38%; viability, T/C [22]: 0.16%; viability, T/C [23]: 0.2%; viability, T/C [24]: 0.21%; viability, T/C [25]: 0.61%; viability, T/C [34]: 0.27%; viability, T/C [35]: 0.23%"
COc1cc2nccc(Oc3ccc(NC(=O)C4(C(=O)Nc5ccc(F)cc5)CC4)cc3)c2cc1OC + C=CC(=O)N1CCN(c2nc(OCC3CCCN3C)nc3c2CCN(c2cccc4cccc(C)c24)C3)CC1CC#N,> 10000 nM,> 10000 nM,2470 nM,< 31.6 nM,107%,97.9%,106%,104%,108%,119%,108%,110%,92.3%,101%,92.8%,104%,16.2%,13.8%,0.57%,0.23%,"IC50 (curve of first compound, second compound 0.0316 µM): > 10000 nM; viability, T/C (second compound 0.0316 µM, first compound 0.0316 µM): 107%; viability, T/C (second compound 0.0316 µM, first compound 0.1 µM): 98.3%; viability, T/C (second compound 0.0316 µM, first compound 0.316 µM): 95.2%; viability, T/C (second compound 0.0316 µM, first compound 1 µM): 98.7%; viability, T/C (second compound 0.0316 µM, first compound 3.16 µM): 64.7%; viability, T/C (second compound 0.0316 µM, first compound 10 µM): 59.5%; viability, T/C [26]: 66.6%; viability, T/C [27]: 50.9%; viability, T/C [28]: 71.9%; viability, T/C [29]: 51.8%; viability, T/C [30]: 37%; viability, T/C [31]: 15.6%; viability, T/C [32]: 2.35%; viability, T/C [33]: 0.23%"
O=C(c1cc(Cc2n[nH]c(=O)c3ccccc23)ccc1F)N1CCN(C(=O)C2CC2)CC1,–,–,–,–,–,–,–,–,–,–,–,–,–,–,–,–,–,–,–,–,"viability, T/C (compound 0.0316 µM): 83% [middle of 5 runs]; viability, T/C (compound 0.1 µM): 93% [middle of 5 runs]; viability, T/C (compound 0.316 µM): 87.8% [middle of 5 runs]; viability, T/C (compound 3.16 µM): 88.3% [middle of 5 runs]; viability, T/C (compound 10 µM): 80.5% [middle of 5 runs]; IC50 (curve of compound): > 10000 nM"
